From ChEMBL document CHEMBL1137501, “Identification and synthesis of major metabolites of Vasopressin V2-receptor agonist WAY-151932, and antagonist, Lixivaptan” (Bioorg Med Chem Lett, 2007)

How the values were obtained:
Rattus norvegicus [1] = assay: Effect on urine volume in rat 10 mg/kg, po relative to control; format: functional
Vasopressin V2 receptor [2] = biological target: T1, Vasopressin V2 receptor (Homo sapiens, UniProt P30518); assay: Displacement of [3H]AVP from human vasopressin V2 receptor expressed in CHO cells at 1000 nM; format: cell-based
T1 sequence (P30518 whole entry): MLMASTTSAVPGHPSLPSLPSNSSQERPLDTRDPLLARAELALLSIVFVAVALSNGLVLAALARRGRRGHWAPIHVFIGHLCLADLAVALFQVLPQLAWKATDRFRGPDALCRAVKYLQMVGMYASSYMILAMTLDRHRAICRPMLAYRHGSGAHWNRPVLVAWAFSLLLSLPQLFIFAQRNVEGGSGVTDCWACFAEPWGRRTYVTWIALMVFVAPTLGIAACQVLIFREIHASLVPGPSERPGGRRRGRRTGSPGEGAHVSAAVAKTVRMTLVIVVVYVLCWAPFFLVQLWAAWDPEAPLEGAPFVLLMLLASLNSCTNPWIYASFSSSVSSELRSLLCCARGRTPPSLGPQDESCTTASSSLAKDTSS

Vasopressin V1a receptor [3] = biological target: T2, Vasopressin V1a receptor (Homo sapiens, UniProt P37288); assay: Displacement of [3H]manning ligand from human vasopressin V1a receptor expressed in CHO cells at 1000 nM; format: cell-based
Target sequence in this assay (P37288 whole entry, looked up): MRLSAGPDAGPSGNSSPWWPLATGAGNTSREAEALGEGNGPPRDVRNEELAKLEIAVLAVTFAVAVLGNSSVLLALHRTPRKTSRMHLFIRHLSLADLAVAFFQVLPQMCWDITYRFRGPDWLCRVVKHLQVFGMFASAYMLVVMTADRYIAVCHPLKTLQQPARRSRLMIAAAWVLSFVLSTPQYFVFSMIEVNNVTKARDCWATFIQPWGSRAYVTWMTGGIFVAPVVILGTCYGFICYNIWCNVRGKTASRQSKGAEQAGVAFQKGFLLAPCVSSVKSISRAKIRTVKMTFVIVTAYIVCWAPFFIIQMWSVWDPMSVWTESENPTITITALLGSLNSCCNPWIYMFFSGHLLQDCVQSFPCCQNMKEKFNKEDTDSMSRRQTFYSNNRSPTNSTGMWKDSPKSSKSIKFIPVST

[4] = biological target: T3, Oxytocin receptor (Homo sapiens) (UniProt P30559); assay: Displacement of [3H]oxytocin from human oxytocin receptor expressed in CHO cells at 1000 nM; format: cell-based
T3 sequence (whole entry): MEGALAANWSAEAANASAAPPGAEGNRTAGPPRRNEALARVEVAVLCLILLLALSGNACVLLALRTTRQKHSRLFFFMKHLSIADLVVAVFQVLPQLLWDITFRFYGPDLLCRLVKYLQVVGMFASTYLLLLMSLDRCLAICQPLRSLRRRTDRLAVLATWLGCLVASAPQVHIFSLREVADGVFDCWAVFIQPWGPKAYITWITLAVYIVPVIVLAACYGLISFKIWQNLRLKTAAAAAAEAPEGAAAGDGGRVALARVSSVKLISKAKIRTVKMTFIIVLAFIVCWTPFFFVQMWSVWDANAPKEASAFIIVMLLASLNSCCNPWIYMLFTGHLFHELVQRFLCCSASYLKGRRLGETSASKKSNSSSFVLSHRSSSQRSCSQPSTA

Vasopressin V1a receptor [5] = biological target: T2, Vasopressin V1a receptor; assay: Displacement of [3H]manning ligand from human vasopressin V1a receptor expressed in CHO cells; format: cell-based
Target sequence in this assay (P37288 whole entry): as the sequence (P37288 whole entry, looked up) above

Oxytocin receptor = biological target: T4, Oxytocin receptor (Homo sapiens, UniProt P30559); assay: Displacement of [3H]oxytocin from human oxytocin receptor expressed in CHO cells; format: cell-based
T4 sequence (P30559 whole entry): T3 sequence (whole entry)

Vasopressin V2 receptor [6] = biological target: T1, Vasopressin V2 receptor; assay: Displacement of [3H]AVP from human vasopressin V2 receptor expressed in CHO cells; format: cell-based
Vasopressin V1a receptor [7] = biological target: T2, Vasopressin V1a receptor; assay: Displacement of [3H]manning ligand from human vasopressin V1a receptor expressed in CHO cells at 100 nM; format: cell-based
Target sequence in this assay (P37288 whole entry, looked up): as the sequence (P37288 whole entry, looked up) above

Vasopressin V2 receptor [8] = biological target: T1, Vasopressin V2 receptor; assay: Displacement of [3H]AVP from human vasopressin V2 receptor expressed in CHO cells at 100 nM; format: cell-based
[9] = biological target: T3, Oxytocin receptor (Homo sapiens); assay: Displacement of [3H]oxytocin from human oxytocin receptor expressed in CHO cells at 100 nM; format: cell-based
Vasopressin V2 receptor [10] = biological target: T1, Vasopressin V2 receptor; assay: Displacement of [3H]AVP from human vasopressin V2 receptor expressed in mouse LV2 cells; format: cell-based
Rattus norvegicus [11] = assay: Effect on urine volume in rat 10 mg/kg, iv relative to control; format: functional

| Structure (SMILES) | Activity (Rattus norvegicus [1]) [%] | IC50 (Vasopressin V1a receptor [5]) [µM] | IC50 (Oxytocin receptor) [µM] | also measured |
| --- | --- | --- | --- | --- |
| Cc1ccc(F)cc1C(=O)Nc1ccc(C(=O)N2C=C3C(O)CC(=O)N3Cc3ccccc32)c(Cl)c1 (stereo not drawn) | 102 | – | – | – |
| Cc1ccn(-c2ccc(C(=O)N3CC4=CCC(=O)N4Cc4ccccc43)c(Cl)c2)n1 | 0 | – | – | inhibition (Vasopressin V2 receptor [2]): 40%; inhibition (Vasopressin V1a receptor [3]): -3%; inhibition [4]: 9% |
| Cc1ccn(-c2ccc(C(=O)Nc3ccccc3C(=O)O)c(Cl)c2)n1 | – | – | – | inhibition (Vasopressin V2 receptor [2]): 3%; inhibition (Vasopressin V1a receptor [3]): -7% |
| Cc1ccn(-c2ccc(C(=O)Nc3ccccc3Cn3cccc3C(=O)O)c(Cl)c2)n1 | – | – | – | inhibition (Vasopressin V2 receptor [2]): 1%; inhibition [4]: -10% |
| Cc1ccc(F)cc1C(=O)Nc1ccc(C(=O)N2Cc3cccn3Cc3ccccc32)c(Cl)c1 [LIXIVAPTAN] | 740 | 0.124 | 0.519 | – |
| Cc1ccc(F)cc1C(=O)Nc1ccc(C(=O)N2CC3C=CC(=O)N3Cc3ccccc32)c(Cl)c1 (stereo not drawn) | -26 | > 1 | > 1 | IC50 (Vasopressin V2 receptor [6]): 0.034 µM |
| Cc1ccc(F)cc1C(=O)Nc1ccc(C(=O)Nc2ccccc2Cn2cccc2C=O)c(Cl)c1 | – | – | – | inhibition (Vasopressin V1a receptor [7]): -6%; inhibition (Vasopressin V2 receptor [8]): 3%; inhibition [9]: 12% |
| O=C(O)c1ccn(-c2ccc(C(=O)N3Cc4cccn4Cc4ccccc43)c(Cl)c2)n1 | 0 | – | – | – |
| Cc1ccn(-c2ccc(C(=O)N3C=C4CCC(=O)N4Cc4ccccc43)c(Cl)c2)n1 | 0 | – | – | IC50 (Vasopressin V2 receptor [10]): 1.21 µM; inhibition (Vasopressin V1a receptor [3]): 4% |
| Cc1ccn(-c2ccc(C(=O)N3CC4C=CC(=O)N4Cc4ccccc43)c(Cl)c2)n1 (stereo not drawn) | 16 | – | – | inhibition (Vasopressin V2 receptor [2]): 16%; inhibition (Vasopressin V1a receptor [3]): -8%; inhibition [4]: -4% |
| Cc1ccn(-c2ccc(C(=O)N3Cc4cccn4Cc4ccccc43)c(Cl)c2)n1 | -82 | – | 0.353 | – |
| Cc1ccc(F)cc1C(=O)Nc1ccc(C(=O)Nc2ccccc2Cn2cccc2C(=O)O)c(Cl)c1 | – | > 1 | > 1 | IC50 (Vasopressin V2 receptor [6]): > 1 µM; Activity (Rattus norvegicus [11]): 6.9% |
| Cc1ccc(F)cc1C(=O)Nc1ccc(C(=O)Nc2ccccc2C(=O)O)c(Cl)c1 | – | > 1 | > 1 | IC50 (Vasopressin V2 receptor [6]): > 1 µM; Activity (Rattus norvegicus [11]): -6% |
| O=C(c1ccc(-n2ccc(CO)n2)cc1Cl)N1Cc2cccn2Cc2ccccc21 | -82 | – | – | – |
| Cc1ccc(F)cc1C(=O)Nc1ccc(C(=O)N2C=C3CCC(=O)N3Cc3ccccc32)c(Cl)c1 | 133 | > 1 | > 1 | IC50 (Vasopressin V2 receptor [6]): 0.011 µM |
| Cc1ccc(F)cc1C(=O)Nc1ccc(C(=O)N2CC3=CCC(=O)N3Cc3ccccc32)c(Cl)c1 | 131 | – | – | – |
